In patent US7157453B2, “Urea substituted imidazoquinolines” (3M Innovation Properties Company, priority 1999, dated 2007):

What was measured:
interferon (α) = assay: Cytokine Induction in Human Cells: interferon (α) by ELISA; assay type: cell-based; conditions: PBMC; human PBMCs, incubated 18 to 24 hours, lowest concentration found to induce interferon
Excerpt: (§1) An in vitro human blood cell system was used to assess cytokine induction by compounds of the invention. Activity is based on the measurement of interferon and tumor necrosis factor (α) (IFN and TNF, respectively) secreted into culture media as described by Testerman et. al. In “Cytokine Induction by the Immunomodulators Imiquimod and S-27609”, Journal of Leukocyte Biology, 58, 365–372 (September, 1995).
(§2) Whole blood is collected by venipuncture into EDTA vacutainer tubes from healthy human donors. Peripheral blood mononuclear cells (PBMCs) are separated from whole blood by density gradient centrifugation using Histopaque®-1077 (Sigma Chemicals, St. Louis, Mo.). The PBMCs are suspended at 3–4×10^6 cells/mL in RPMI 1640 medium containing 10% fetal bovine serum, 2 mM L-glutamine and 1% penicillin/streptomycin solution (RPMI complete). The PBMC suspension is added to 48 well flat bottom sterile tissue culture plates (Costar, Cambridge, Mass. or Becton Dickinson Labware, Lincoln Park, N.J.) containing an equal volume of RPMI complete media containing test compound.
(§3) The compounds are solubilized in dimethyl sulfoxide (DMSO). The DMSO concentration should not exceed a final concentration of 1% for addition to the culture wells.
(§4) The solution of test compound is added at 60 μM to the first well containing RPMI complete and serial (three fold or ten fold) dilutions are made. The PBMC suspension is then added to the wells in an equal volume, bringing the test compound concentrations to the desired range. The final concentration of PBMC suspension is 1.5–2×10^6 cells/mL. The plates are covered with sterile plastic lids, mixed gently and then incubated for 18 to 24 hours at 37° C. in a 5% carbon dioxide atmosphere.
(§5) Following incubation the plates are centrifuged for 5–10 minutes at 1000 rpm (˜200×g) at 4° C. The cell culture supernatant is removed with a sterile polypropylene pipet and transferred to sterile polypropylene tubes. Samples are maintained at −30 to −70° C. until analysis. The samples are analyzed for interferon (α) and tumor necrosis factor (α) by ELISA
Interferon (α) concentration is determined by ELISA using a Human Multi-Species kit from PBL Biomedical Laboratories, New Brunswick, N.J.
(§6) The table below lists the lowest concentration found to induce interferon and the lowest concentration found to induce tumor necrosis factor for each compound.

[1] = tested on: tumor necrosis factor (α); assay: Cytokine Induction in Human Cells: tumor necrosis factor (α) by ELISA; assay type: cell-based; conditions: PBMC; human PBMCs, incubated 18 to 24 hours, lowest concentration found to induce tumor necrosis factor
Excerpt: as §1, §2, §3, §4, §5
Tumor necrosis factor (α) (TNF) concentration is determined using ELISA kits available from Genzyme, Cambridge, Mass.; R&D Systems, Minneapolis, Minn.; or Pharmingen, San Diego, Calif.
as §6

SMILES	minimal effective concentration (interferon (α))	minimal effective concentration [1]
Nc1nc2ccccc2c2c1ncn2CCCCNC(=O)OCC1c2ccccc2-c2ccccc21 [Example 4, 9H-9-Fluorenylmethyl N-[4-(4-amino-1H-imidazo[4,5-c]quinolin-1-yl)butyl]carbamate]	> 30 µM	> 30 µM
Nc1nc2ccccc2c2c1ncn2CCCCNC(=O)Nc1ccccc1 [Example 16]	1.11 µM	10 µM
Nc1nc2ccccc2c2c1ncn2CCCCNC(=O)Nc1ccc([N+](=O)[O-])cc1 [Example 17]	> 30 µM	30 µM
CC(C)NC(=O)NCCCCn1cnc2c(N)nc3ccccc3c21 [Example 19]	1.11 µM	30 µM
CC(C)(C)NC(=O)NCCCCn1cnc2c(N)nc3ccccc3c21 [Example 20]	1.11 µM	30 µM
CCCCOc1ccc(NC(=O)NCCCCn2cnc3c(N)nc4ccccc4c32)cc1 [Example 21]	> 30 µM	> 30 µM
CCCCCCCNC(=O)NCCCCn1cnc2c(N)nc3ccccc3c21 [Example 22]	> 30 µM	10 µM
Nc1nc2ccccc2c2c1ncn2CCCCNC(=O)Nc1cc(C(F)(F)F)cc(C(F)(F)F)c1 [Example 23]	> 30 µM	10 µM
CC(C)c1cccc(C(C)C)c1NC(=O)NCCCCn1cnc2c(N)nc3ccccc3c21 [Example 24]	> 30 µM	> 30 µM
CCCCCCNC(=O)NCCCCn1cnc2c(N)nc3ccccc3c21 [Example 25]	3.33 µM	> 30 µM
CCCNC(=O)NCCCCn1cnc2c(N)nc3ccccc3c21 [Example 26]	10 µM	> 30 µM
CC(C)c1ccc(NC(=O)NCCCCn2cnc3c(N)nc4ccccc4c32)cc1 [Example 27]	> 30 µM	> 30 µM
N#Cc1cccc(NC(=O)NCCCCn2cnc3c(N)nc4ccccc4c32)c1 [Example 28]	1.11 µM	3.33 µM
Nc1nc2ccccc2c2c1ncn2CCCCNC(=O)Nc1cc(Cl)cc(Cl)c1 [Example 29]	> 30 µM	10 µM
CCCCCNC(=O)NCCCCn1cnc2c(N)nc3ccccc3c21 [Example 30]	3.33 µM	30 µM
Nc1nc2ccccc2c2c1ncn2CCCCNC(=O)Nc1cc(C(F)(F)F)ccc1Cl [Example 31]	> 30 µM	10 µM
CC(C)(C)CC(C)(C)NC(=O)NCCCCn1cnc2c(N)nc3ccccc3c21 [Example 32]	10 µM	10 µM
Nc1nc2ccccc2c2c1ncn2CCCCNC(=O)Nc1ccc(Oc2ccccc2)cc1 [Example 33]	> 30 µM	> 30 µM
CCCCc1ccc(NC(=O)NCCCCn2cnc3c(N)nc4ccccc4c32)cc1 [Example 34]	> 30 µM	> 30 µM
Nc1nc2ccccc2c2c1ncn2CCCCNC(=O)NCc1ccccc1 [Example 35]	1.11 µM	10 µM
Nc1nc2ccccc2c2c1ncn2CCCCNC(=O)NCCc1ccccc1 [Example 36]	1.11 µM	10 µM
COc1ccc(NC(=O)NCCCCn2cnc3c(N)nc4ccccc4c32)cc1 [Example 37]	1.11 µM	10 µM
Cc1cc(C)c(NC(=O)NCCCCn2cnc3c(N)nc4ccccc4c32)cc1C [Example 38]	> 30 µM	> 30 µM
Nc1nc2ccccc2c2c1ncn2CCCCNC(=O)NC1CCCCC1 [Example 39]	1.11 µM	10 µM
CCc1ccccc1NC(=O)NCCCCn1cnc2c(N)nc3ccccc3c21 [Example 40]	0.37 µM	3.33 µM
Nc1nc2ccccc2c2c1ncn2CCCCNC(=O)Nc1ccccc1[N+](=O)[O-] [Example 41]	1.11 µM	10 µM

SMILES	minimal effective concentration (interferon (α))	minimal effective concentration [1]
Nc1nc2ccccc2c2c1ncn2CCCCNC(=O)Nc1ccc(Br)cc1 [Example 42]	> 30 µM	> 30 µM
COC(=O)c1ccccc1NC(=O)NCCCCn1cnc2c(N)nc3ccccc3c21 [Example 43]	> 30 µM	> 30 µM
CCOc1ccccc1NC(=O)NCCCCn1cnc2c(N)nc3ccccc3c21 [Example 44]	1.11 µM	10 µM
Nc1nc2ccccc2c2c1ncn2CCCCNC(=O)Nc1ccccc1-c1ccccc1 [Example 45]	3.33 µM	> 30 µM
Nc1nc2ccccc2c2c1ncn2CCCCNC(=O)Nc1ccccc1C(F)(F)F [Example 46]	1.11 µM	3.33 µM
CSc1ccc(NC(=O)NCCCCn2cnc3c(N)nc4ccccc4c32)cc1 [Example 47]	3.33 µM	10 µM
Cc1ccccc1NC(=O)NCCCCn1cnc2c(N)nc3ccccc3c21 [Example 48]	0.37 µM	3.33 µM
CSc1cccc(NC(=O)NCCCCn2cnc3c(N)nc4ccccc4c32)c1 [Example 49]	3.33 µM	3.33 µM
CCCCOC(=O)c1ccc(NC(=O)NCCCCn2cnc3c(N)nc4ccccc4c32)cc1 [Example 50]	> 30 µM	> 30 µM
CC(=O)c1ccc(NC(=O)NCCCCn2cnc3c(N)nc4ccccc4c32)cc1 [Example 51]	30 µM	30 µM
CCCCNC(=O)NCCCCn1cnc2c(N)nc3ccccc3c21 [Example 52]	1.11 µM	10 µM
CCCCc1nc2c(N)nc3ccccc3c2n1CCNC(=O)NC12CC3CC(CC(C3)C1)C2 [Example 53]	> 10 µM	10 µM
CCCCc1nc2c(N)nc3ccccc3c2n1CCNC(=O)Nc1ccc(Oc2ccccc2)cc1 [Example 54]	> 10 µM	10 µM
CCCCc1nc2c(N)nc3ccccc3c2n1CCNC(=O)NCc1ccccc1 [Example 55]	1 µM	1 µM
CCCCc1nc2c(N)nc3ccccc3c2n1CCNC(=O)NCCC [Example 56]	1 µM	1 µM
CCCNC(=O)NCCn1c(COCC)nc2c(N)nc3ccccc3c21 [Example 67]	1 µM	10 µM
CCCCc1nc2c(N)nc3ccccc3c2n1CCCCNC(=O)NCCC [Example 71]	0.001 µM	1 µM
CCCCc1nc2c(N)nc3ccccc3c2n1CCCCNC(=O)N[C@H](C)c1ccccc1 [Example 81]	0.01 µM	1 µM
CCCCc1nc2c(N)nc3ccccc3c2n1CCCCNC(=O)N[C@@H](C)c1ccccc1 [Example 82]	0.01 µM	0.1 µM
CCCCc1nc2c(N)nc3ccccc3c2n1CCCCNC(=O)NCc1cccc(C)c1 [Example 83]	0.1 µM	1 µM
CCCCc1nc2c(N)nc3ccccc3c2n1CCCCNC(=O)NCc1ccc(C)cc1 [Example 84]	0.1 µM	1 µM
CCCCc1nc2c(N)nc3ccccc3c2n1CCCCNC(=O)Nc1ccccc1OC [Example 85]	0.001 µM	0.1 µM
CCCCc1nc2c(N)nc3ccccc3c2n1CCCCNC(=O)Nc1ccccc1Cl [Example 86]	0.1 µM	1 µM
CCCCCCCCNC(=O)NCCCCn1c(CCCC)nc2c(N)nc3ccccc3c21 [Example 87]	1 µM	> 10 µM
CCCCc1nc2c(N)nc3ccccc3c2n1CCCCNC(=O)N[C@@H]1C[C@H]1c1ccccc1 [Example 88]	0.1 µM	1 µM
